Patent publication US20170074857A1, “MEDICATION ADHERENCE MONITORING DEVICE” (UNIVERSITY OF FLORIDA RESEARCH FOUNDATION, INC., priority 2014, published 2017)

Key:
[1] = Example 4b: breath acetone and 2-butanone by Type 1 mGC after soft gel with 2-butanol and isopropyl alcohol; type: in vivo, human; conditions: 2-butanol (40 mg) and isopropyl alcohol (30 mg)
Experimental: Shown in Panel A of FIG. 76 is the 1st derivative mGC response (proportional to EDIM breath concentration) in a Type 1 SMART Device for acetone and 2-butanone as a function of breath sampling times post ingestion of the capsule.
Panel B depicts the change from baseline of the 1st derivative mGC response. Time 0 is baseline (immediately before capsule is ingested containing the two AEMs). […] Note how the 2-butanone levels in breath begin to fall after 20 min, whereas those of acetone slowly continue to rise over the study period.

[2] = cited from earlier work

Q: Which “half life in breath” value [1] does the source give for `CCC(C)=O` [Formulation 2-butanone, 2-butanone] here?
A: about 45 minutes

Q: And the “Tmax of breath marker” value ([1]; fasting subject)?
A: 20 min

Q: And the “blood elimination t1/2” value ([2]; in vivo)?
A: 49 to 96 min

Q: What about the “pulmonary uptake from air” value ([2]; inhalation exposure 100,000-200,000 ppb) of the same molecule?
A: 70%
